Data as given in patent publication US9744191B2, “Antimicrobial compositions and methods” (Yale University, priority 2012, dated 2017).
“Also recorded” adds a separate entry of the source.

Experiments:
[1] = tested on: Saccharomyces cerevisiae MYH500; assay: Growth assays for antifungal compounds combined with fluoride: S. cerevisiae; type: cell-based; conditions: for inhibition of S. cereviciae growth: under the assay conditions, data not shown; for fungal growth inhibition compared with NaF: 30 mM and 80 mM, with amphotericin B; for effect of ion on MIC of amphotericin B: tested at 30 mM and 80 mM with amphotericin B
Description: (§1) Model Organism: Saccharomyces cerevisiae MYH500 [Genotype: his3-del200, leu2-3, ura3-52, lys2-801, trp1-1, gal2]
Methods: • 1. Pick an isolated yeast colony (S. cerevisiae MYH500) from a plate, inoculate into 2 mL YPD medium in a 14 mL snap-cap tube and grow for 12 h at 30° C. on a shaker (200 rpm). The O.D.600 of the culture should be approximately 1.30. • 2. Two growth methods are used. (i) If culturing cells in 14 mL snap-cap tubes, dilute the cells 1:3 (1 vol. of 12 hr cell culture plus 2 vol. medium). Then, inoculate 2 mL YPD medium with 20 μL of 1/3 diluted cells (1% inoculation). […] (ii) For growth curve measurements, culture cells in a honeycomb 2 plate (Oy Growth Curves Ab Ltd) with 400 μL of medium inoculated with 8 μL of 1:6 diluted cells (1% inoculation). […] Supplement a fungicide and/or fluoride in the culture as necessary for each experiment.

[2] = molecular target: T1, crcB fluoride transporter (Escherichia coli, UniProt P37002); assay: Fluoride riboswitch beta-galactosidase reporter assay in E. coli cells with imipramine; type: cell-based
T1 construct: endogenous in cells; host or cells: E. coli cells carrying a fluoride riboswitch beta-galactosidase reporter construct
T1 sequence (P37002 whole entry): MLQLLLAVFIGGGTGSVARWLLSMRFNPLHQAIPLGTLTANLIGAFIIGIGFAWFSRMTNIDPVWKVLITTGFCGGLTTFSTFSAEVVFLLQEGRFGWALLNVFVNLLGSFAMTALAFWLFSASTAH
Source text: Fluoride riboswitch fused to a beta-galactosidase reporter gene. Construct is present in E. coli cells and cells are exposed to concentrations of sodium fluoride and imipramine (x-axis) as noted in FIG. 10.

[3] = tested on: Saccharomyces cerevisiae MYH500; assay: Fungicidal fluoride assay (colony counts after culture in fluoride); type: cell-based; conditions: 300 mM fluoride in liquid medium, 160 minute incubation
Description: CrcB proteins are most likely fluoride transporters. The fungal expression of crcB and the subsequent ejection of fluorides from cells is a major mechanism for how these organisms overcome fluoride toxicity. To assess whether fluoride simply halts fungal growth (fungistatic) or kills fungal cells (fungicidal), a culture of Saccharomyces cereviciae and added 300 mM fluoride to the medium was prepared. Samples of this mixture were taken at various times, plated, and the number of resulting colonies were recorded (FIG. 1). […] Therefore, compounds that facilitate the uptake and/or retention of fluoride, or otherwise inhibit the fluoride toxicity mitigation responses of fungi, also function as fungicidal compounds when used in combination with fluoride.
as §1
Medium: YPD (liquid and solid)
• 1. Pick an isolated yeast colony (S. cerevisiae MYH500) from a plate, inoculate into 2 mL YPD medium (liquid) in a 14 mL snap-cap tube and grow for 12 h at 30° C. on a shaker (200 rpm). • 2. Dilute 20 μL of the culture into 2 mL medium and mix. Remove a 20 μL aliquot and transfer to 2 mL YPD medium with 300 mM NaF. Grow at 30° C. on a shaker (200 rpm) for 10, 20, 40, 80, 160 and 240 m. • 3. At each time point, transfer 100 μL culture to an agar plate and distribute. • 4. […]

[4] = tested on: Neurospora crassa (FGSC #2225); assay: Growth assays for antifungal compounds combined with fluoride: N. crassa; type: cell-based
Description: Model Organism: Neurospora crassa (FGSC #2225) [Genotype: N. crassa, A]
Methods: • 1. Recover N. crassa on a slant with minimal medium at 25° C. for 5-6 days to grow spores. • 2. Re-suspend two loops of spores in 2 mL minimal medium. • 3. Inoculate 20 μL into 2 mL minimal medium in an autoclaved 16×150 mm glass tube with cap. • 4. Supplement a fungicide and/or fluoride in the culture as necessary for each experiment. • 5. Grow for 24 h at 25° C. on a shaker (200 rpm).

[5] = tested on: Candida albicans (SC5314; ATCC number MYA-2876); assay: Growth assays for amphotericin B combined with fluoride: C. albicans; type: cell-based; conditions: for effect on C. albicans growth: liquid medium, 48 hours
Description: Organism: Candida albicans (SC5314; ATCC number MYA-2876)
Methods: • 1. Pick an isolated C. albicans yeast colony from a plate, inoculate into 2 mL YPD medium in a 17 mL screw-cap tube and grow for 12 h at 28° C. on a shaker (200 rpm). The O.D.600 of the culture should be approximately 3.6. • 2. Two growth methods were used. (i) If culturing cells in 17 ml screw-cap tubes, dilute the cells 1:5 (1 volume of 12 hr cell culture plus 4 volumes of medium). Inoculate 2 mL YPD medium with 20 μL of 1-to-5 diluted cells (1% inoculation). Incubate at 28° C. and 200 rpm for 9 hours before measuring O.D. (ii) For growth curve measurements, culture cells in a honeycomb 2 plate with 400 μL of medium inoculated with 8 μL of 1-to-10 diluted cells (1% inoculation). Culture for 48 hrs at 28° C., measuring OD600 every 15 m without shaking in the Bioscreen C MBR instrument. • 3. Supplement a fungicide and/or fluoride in the culture as necessary for each experiment.

[6] = tested on: Escherichia coli crcB knock-out; conditions: E. coli crcB knock-out compared to wild-type; cited from earlier work
[7] = tested on: Saccharomyces cerevisiae MYH500; assay: Growth assays for Novexatin combined with fluoride: S. cerevisiae; type: cell-based; conditions: S. cereviciae; for improvement in MIC at about 24 hours: 30 mM NaF, approximately 24 hours (26.25 h)
Description: as §1
Methods: • 1. Pick an isolated yeast colony (S. cerevisiae MYH500) from a plate, inoculate into 2 mL YPD medium in a 14 mL snap-cap tube and grow for 12 h at 30° C. on a shaker (200 rpm). The O.D.600 of the culture should be approximately 1.30. • 2. For growth curve measurements, culture cells in a honeycomb 2 plate with 80 μL of medium (final volume) inoculated with 2 μL of 1:12 diluted cells. Culture for 48 hrs at 30° C., measuring O.D.600 every 15 m without shaking in the Bioscreen C MBR instrument. • 3. Supplement a fungicide and/or fluoride in the culture as necessary for each experiment.

Cc1cccc(N(C)C(=S)Oc2ccc3ccccc3c2)c1 [tolnaftate]
inhibition of S. cereviciae growth [1]: did not significantly inhibit S. cereviciae growth

CN(C)CCCN1c2ccccc2CCc2ccccc21 [imipramine, Imipramine]
reporter gene expression (fluorescence, substrate 4-MUG) ([2]; 330 μM imipramine, E. coli cells with riboswitch-reporter construct, sodium fluoride): increased expression of the reporter gene
reporter gene expression with imipramine in cells lacking CrcB ([2]; E. coli cells lacking the gene for fluoride transporter protein CrcB): substantially reduced

[F-].[Na+] [fluoride, Sodium fluoride]
loss of cell viability (colonies after plating) [3]: near complete killing
effect on fungal growth ([1]; 60 mM fluoride combined with 20 nM amphotericin B): complete inhibition of growth
effect on fungal growth ([1]; 60 mM fluoride tested alone): only a modest effect on fungal growth
lengthening of time to near full culture growth ([1]; 80 mM fluoride alone): two fold
effect on S. cereviciae growth ([1]; fluoride alone, 30 mM in liquid medium): only marginally affects
fluoride concentration required to completely inhibit fungal growth ([1]; fluoride alone, 48-hour culture): > 100 mM
fluoride concentration required to completely prevent N. crassa growth ([4]; fluoride tested independently, 24 h): greater than 80 mM
effect on C. albicans growth ([5]; 100 mM fluoride alone): only a modest inhibitory effect
effect on C. albicans growth ([5]; 300 mM fluoride alone): completely prevented growth
increase in sensitivity to fluoride of crcB knock-out strain [6]: approximately 200 fold

C[C@@H]1[C@H](O)[C@@H](C)/C=C/C=C/C=C/C=C/C=C/C=C/C=C/[C@H](O[C@@H]2O[C@H](C)[C@@H](O)[C@H](N)[C@@H]2O)C[C@@H]2O[C@](O)(C[C@@H](O)C[C@@H](O)[C@H](O)CC[C@@H](O)C[C@@H](O)CC(=O)O[C@H]1C)C[C@H](O)[C@H]2C(=O)O [amphotericin B]
effect of combination on growth inhibition ([1]; 10 nM amphotericin B in combination with a range of fluoride concentrations): dramatic increase in the growth-inhibition effects of fluoride
effect on cell growth ([1]; 10 nM amphotericin B used alone): almost no effect on cell growth
growth inhibition effect on S. cereviciae ([1]; 20 nM amphotericin B alone): almost no growth inhibition effect
improvement in MIC for S. cereviciae ([1]; 30 mM fluoride added to liquid medium): approximately 10 fold
improvement in MIC for S. cereviciae ([1]; 80 mM fluoride): ~30 fold
amphotericin B concentration required to almost completely inhibit growth ([1]; absence of fluoride, over 48 hours): 300 nM
effect on S. cereviciae growth ([1]; amphotericin B 30 to 70 nM, absence of fluoride): only marginally delay near full growth
amphotericin B concentration required to prevent N. crassa growth ([4]; amphotericin B tested independently, 24 h): greater than 300 nM
reduction of MIC for N. crassa ([4]; combined with 10 mM fluoride): at least 4 fold
reduction of MIC for N. crassa ([4]; combined with 30 mM fluoride): ≥ 10 fold
MIC for C. albicans ([5]; medium supplemented with 30 mM fluoride): ~0.05 µM

[Cl-].[K+] [KCl]
fungal growth inhibition compared with NaF [1]: consistently less effective than NaF
effect of ion on MIC of amphotericin B [1]: improve the MIC values of amphotericin B

[Cl-].[Na+] [NaCl]
fungal growth inhibition compared with NaF [1]: consistently less effective than NaF
effect of ion on MIC of amphotericin B [1]: improve the MIC values of amphotericin B

CN(C/C=C/C#CC(C)(C)C)Cc1cccc2ccccc12 [terbinafine]
inhibition of S. cereviciae growth [1]: did not significantly inhibit S. cereviciae growth

aculeacin A
effect of fluoride on inhibition of S. cereviciae growth by the antifungal ([1]; 30 mM fluoride): not affected at all; also recorded: lack of an effect

cyclic hepta-arginine [NOVEXATIN®]
improvement in MIC at about 24 hours [7]: A similar result
improvement in MIC at about 24 hours ([7]; listed as Novexatin®): improvement in MIC
improvement in MIC ([7]; combined with 30 mM fluoride, 48 h): greater than 3 fold
concentration needed to almost completely prevent fungal growth ([7]; over 48 hours, no fluoride): 3 mM
